Experimental data reported in patent publication US20240298639A1 (priority 2021, published 2024).

Legend:
Type in all cases: cell-based
[1] = test system: wheat scab fungi (Fusarium graminearum and Fusarium asiaticum); test: organism not typed; conditions: for inhibition at 0.125 µg/mL / inhibition at 0.25 µg/mL / inhibition at 0.5 µg/mL: read-out: Mycelial growth inhibition rate (MGIR); for inhibition at 0.5 µg/mL: 0.5 mg/L
[2] = test system: melon Fusarium wilt pathogen (Fusarium oxysporum); test: microbe, parasite or virus in culture; conditions: 1 mg/L; for inhibition at 1 µg/mL: Fusarium, read-out: Mycelial growth inhibition rate
[3] = test system: banana Fusarium wilt pathogen (Fusarium oxysporum); test: microbe, parasite or virus in culture; conditions: 1 mg/L; for inhibition at 1 µg/mL: Fusarium, read-out: Mycelial growth inhibition rate
[4] = test system: rice bakanae disease pathogen (Fusarium moniliforme); test: microbe, parasite or virus in culture; conditions: 1 mg/L; for inhibition at 1 µg/mL: Fusarium verticillioides, read-out: Mycelial growth inhibition rate

Compound | inhibition at 0.125 µg/mL ([1]; 0.125 mg/L) | inhibition at 0.25 µg/mL ([1]; 0.25 mg/L) | inhibition at 0.5 µg/mL [1] | other results
CCN(CC)c1ccc(/C(N)=C(\C#N)C(=O)OC)cc1 [Compound 28] | 74.4 ± 3.8% | 85.3 ± 3.3% | > 90% | –
CCCOC(=O)/C(C#N)=C(\N)c1ccc(N(CC)CC)cc1 [Compound 37] | 73.9 ± 5.5% | 84.8 ± 7.1% | > 90% | –
CCOC(=O)/C(C#N)=C(\N)c1ccc(N)cc1 [Compound 1] | 65.5 ± 4.3% | 81.2 ± 6.3% | > 90% | –
CCCOC(=O)/C(C#N)=C(\N)c1ccc(NC)cc1 [Compound 34] | 74.1 ± 2.3% | 84.9 ± 5.4% | > 90% | –
CCCOC(=O)/C(C#N)=C(\N)c1ccc(N(C)C)cc1 [Compound 36] | 75.2 ± 3.3% | 85.4 ± 3.9% | > 90% | –
CCOC(=O)/C(C#N)=C(\N)c1ccc(N2CCCCC2)cc1 [Compound 17] | 81.4 ± 5.5% | > 90% | > 90% | –
CCOC(=O)/C(C#N)=C(\N)c1ccc(NC)cc1 [Compound 2] | > 90% | > 90% | > 90% | inhibition at 1 µg/mL [2]: > 90%; inhibition at 1 µg/mL [3]: > 90%; inhibition at 1 µg/mL [4]: > 90%
CCOC(=O)/C(C#N)=C(\N)c1ccc(N2CCC2)cc1 [Compound 15] | 84.2 ± 4.5% | > 90% | > 90% | –
CCOC(=O)/C(C#N)=C(\N)c1ccc(N(C)CC)cc1 [Compound 8] | 88.3 ± 4.5% | > 90% | > 90% | –
CCCOC(=O)/C(C#N)=C(\N)c1ccc(NCC)cc1 [Compound 35] | 76.6 ± 3.3% | 85.8 ± 1.8% | > 90% | –
CCOC(=O)/C(C#N)=C(\N)c1ccc(N(CC)CC)cc1 [Compound 11] | > 90% | > 90% | > 90% | inhibition at 1 µg/mL [2]: > 90%; inhibition at 1 µg/mL [3]: > 90%; inhibition at 1 µg/mL [4]: > 90%
CCOC(=O)/C(C#N)=C(\N)c1ccc(N2CCCC2)cc1 [Compound 16] | 82.3 ± 2.5% | > 90% | > 90% | –
phenamacril [reference compound] | – | – | – | Mycelial growth inhibition rate (MGIR) ([1]; 0.125 mg/L): 21.1 ± 2.3%; Mycelial growth inhibition rate (MGIR) ([1]; 0.25 mg/L): 36.1 ± 5.0%; Mycelial growth inhibition rate [2]: 25%; Mycelial growth inhibition rate [3]: 25%; Mycelial growth inhibition rate [4]: 25%
CCNc1ccc(/C(N)=C(\C#N)C(=O)OCC)cc1 [Compound 3] | > 90% | > 90% | > 90% | inhibition at 1 µg/mL [2]: > 90%; inhibition at 1 µg/mL [3]: > 90%; inhibition at 1 µg/mL [4]: > 90%
